Data from US20260232644A1, “Compositions Comprising an Inhibitor of Galectin-3” (University of Liverpool, priority 2023, published 2026).
pIC50, pKd: −log10 of the molar value. Structures can show the parent of a compound that is named as a salt.

Legend:
[1] = target: T1, Galectin-3 (Homo sapiens, UniProt P17931); test: Galectin-3 binding to asialofetuin (ASF) ELISA; settings: for Inhibition of Galectin-3 binding to its ligand asialofetuin (ASF): Galectin-3 5 μg/ml, ASF 20 μg/ml, different concentrations of compound, ELISA; for pIC50: read-out: IC50, inhibition of Galectin-3 binding to its ligand
T1 construct: made in house; host or cells: E. coli
Experimental: (§1) Effect of the inhibitors on galectin binding to its ligand asialo fetuin (ASF) was measured by galectin ELISA. Nanty-six well plates were coated overnight with 20 μg/ml ASF in coating buffer (15 mM Na2CO3 17 mM NaHCO3 pH 9.6.). The wells were washed twice with PBS and incubated with blocking buffer (1% BSA in PBS) for 1 hr. The supernatants were removed and replaced with 5 μg/ml recombinant human galectin without or with different concentrations of the compound inhibitors or lactose in blocking buffer for 1 hr at room temperature. The wells were washed and incubated with 1 μg/ml anti-galectin antibody for 2 hr. Following addition of HRP-conjugated secondary antibody for 1 hr, FAST OPD development solution was added for 15-20 minutes. The reaction was terminated by addition of 4M sulphuric acid. The plates were read at 492 nm (reference wavelength 595 nm) by a microplate reader.

[2] = test system: human pancreatic cancer PANC1 cells; test: Pancreatic cancer cell adhesion to basement matrix; assay type: cell-based; settings: for Effect on adhesion of galectin-3 knockout (Gal3KO) PANC1 cells: CRISPR/Cas9 Gal3KO cells; for Effect on adhesion of non-transfected (con) PANC1 cells: control cells; for Inhibition of PANC1 cell adhesion to matrix: different concentrations
Experimental: (§2) Nanty-six well plates were coated with 50 μl Matrigel (1:30 diluted in PBS) at 37° C. for 1 hour.
(§3) Cancer cells, pre-labelled with fluorescent die DiI at 37° C. for 20 minutes, were washed twice with PBS and resuspended into 3×10^4 cells/ml in serum-free medium. The matrix-coated 96-well plates were washed twice with PBS before introduction of 100μ cell suspension with different concentrations of the inhibitors or PBS/DMSO (control) for 1 hour at 37° C. The plates were washed twice with PBS before three randomly selected Field of Views (FOVs) were recorded by fluorescence microscope and number of adhesion cells were quantified by Image J.
(§4) MDAMB-231 or PANC-1 cells were seeded into 6-well plate (2×10^5 cells) and cultured at 37° C. for 24 hour. Galectin-3 CRISPR Cas9 Knockout plasmid (2 μg) and galectin-3 HDR plasmid (2 μg) was mixed with Plasmid Transfection Medium (21 μl) for 5 minutes before addition to a mixture of lipofectamine STEM Transfection Reagent (STEM00001) (1 μl) and Plasmid Transfection Medium (25 μl) for 10 minutes at room temperature. The cells in the 6-well plates were washed and introduced with the Plasmid DNA/Lipofectamine STEM Transfection Reagent complex at 37° C. for 24 hour. The culture medium was replaced with fresh antibiotics-free medium for further 24 hour before introduction of 10 μg/mL puromycin-containing medium every three days. Successful co-transfection of the CRISPR/Cas9 KO Plasmid and HDR Plasmid was confirmed by expression of red fluorescence protein of the cells. Galectin-3 knockout in the cells was further confirmed by immunoblotting.

[3] = test system: human umbilical vein endothelial cells (HUVECs); test: Vascular cell tubule formation (angiogenesis); assay type: cell-based; settings: Galectin-3 2 μg/ml, various concentrations
Experimental: Matrigel matrix (50 μl) was added to 96-well plates for 60 min at 37° C. to allow gel formation. HUVEC cells (1×10^5 cells/ml in 1:1 EGM/EBM2 media) was introduced to the plates without or with galectin-3 (2 μg/ml) or different concentrations of compound inhibitors for 24 hr at 37° C. Endothelial cell tube formation was examined with Laser Microscope. The total number of branching points and the sum of the lengths of tubes were measured.

[4] = test system: human colon cancer SW620 cells; test: Galectin-3-mediated SW620 cell adhesion to HUVECs; assay type: cell-based; settings: Galectin-3 2 μg/ml, various concentrations
Experimental: HUVEC cells at 1×10^5 cells/ml in EGM medium were seeded into 24 well plates pre-inserted with 13 mm glass coverslip. The cells were incubated at 37° C. at 5% CO2 for 24 hr for monolayer formation. AGA19+ or SW620 cell suspension (5×10^5 cells/ml in DMEM) was introduced with 5 μl/ml fluorescent cell labelling solution DiL for 30 min at 37° C. The fluorescent labelled cells were washed twice with PBS and resuspended into 1×10^5 cells/ml in DMEM. The cancer cell suspension was then introduced with galectin-3 (2 μg/ml) and various concentrations of the compound inhibitors at 37° C. for 1 hr. The wells were carefully washed twice with PBS to remove the non-adhesion cells before the cells in the wells were fixed with 2% paraformaldehyde for 10 min. The glass coverslip was carefully removed from the plate, placed on a glass slide. After addition of fluorescence mounting medium containing DAPI, fluorescence labelled cells were quantified under a fluorescence microscope.

[5] = test system: THP-1 differentiated macrophages; test: Galectin-3-induced TNFα secretion from macrophages (ELISA); assay type: cell-based; settings: Galectin-3 10 μg/ml, various concentrations
Experimental: (§5) Effect of the compound inhibitors on secretion of pro-inflammatory cytokines from macrophages were assessed in THP-1 monocyte differentiated macrophages. THP-1 cells were induced to differentiation into macrophages by incubation with 10 ng/ml PMA for 48 h at 37° C. The culture medium was then replaced with fresh medium without or with 10 μg/ml galectin-3 and various concentrations of the compound inhibitors for 24 h at 37° C. The culture medium was collected and the concentrations of TNFα and IL-1β in the culture medium were determined by TNFα and IL-1β ELISA.

[6] = target: T2, full-length galectin-3 (Homo sapiens, UniProt P17931); test: Tryptophan Fluorescence Spectroscopy (TFS) binding affinity, full-length Galectin-3
T2 construct: made in house; host or cells: E. coli
Experimental: The binding affinity of the inhibitors to galectin-3 was determined by Intrinsic Tryptophan Fluorescence Spectroscopy (TFS) exactly as we described recently [Sindrewicz, P., et al., Intrinsic tryptophan fluorescence spectroscopy reliably determines galectin-ligand interactions. Sci Rep, 2019. 9(1): p. 11851]. The Galectin-3 concentration used was 10 μM and the inhibitor titration concentrations were from 0 to 224 μM. DMSO/control buffer (PBS with 2 mM EDTA) titrations were performed and used for background subtraction.

[7] = test system: THP-1 differentiated macrophages; test: Galectin-3-induced IL-1β secretion from macrophages (ELISA); assay type: cell-based; settings: Galectin-3 10 μg/ml, various concentrations
Experimental: as §5

[8] = test system: vascular HUVECs; test: LDH release cytotoxicity assay, HUVECs; assay type: cell-based, human; settings: various concentrations
Experimental: (§6) SW620 cells (5×10^4 cells/ml) were seeded into 96-well plate in DMEM (and incubated at 37° C. 5% CO2 for 24 hr. HUVECs (1.0×10^5 cells/ml) was seeded in EBM medium and incubated for 24-36 hr until they formed a monolayer. Compound inhibitors at different concentrations were then introduced to the cells (10× lysis buffer was included as maximum LDH activity control) for 24 hr. The culture medium was transferred to a new plate and was mixed with equal volume of reaction mixture provided in the kit for 30 min at room temperature before the absorbance was measured at 490 nm (reference 680 nm) by a spectrophotometer.

[9] = test system: triple-negative breast cancer MDA-MB-231 cells; test: Triple-negative breast cancer cell adhesion to basement matrix; assay type: cell-based, human; settings: for Effect on adhesion of galectin-3 knockout (Gal3KO) MDA-MB-231 cells: CRISPR/Cas9 Gal3KO cells; for Effect on adhesion of non-transfected (con) MDA-MB-231 cells: control cells; for Inhibition of MDA-MB-231 cell adhesion to matrix: different concentrations
Experimental: as §2, §3, §4

[10] = test system: human colon cancer SW620 cells; test: LDH release cytotoxicity assay, SW620; assay type: cell-based; settings: various concentrations
Experimental: as §6

[11] = test system: human lung cancer H1975 cells; test: Lung cancer cell adhesion to basement matrix; assay type: cell-based; settings: for pIC50: Homo sapiens, NCI-H1975; for Inhibition of H1975 cell adhesion to matrix: different concentrations
Experimental: as §2, §3

[12] = test system: human colon cancer SW620 cells; test: SW620 cell invasion through HUVECs (transwell); assay type: cell-based; settings: Galectin-3 1 ug/ml, transwells, several concentrations
Experimental: HUVECs were plated at a density of 1.5×10^4 cells in 8 μm pore transwells in 24-well plate and cultured for three days to allow formation of tight monolayer. The integrity of HUVEC monolayer was confirmed by measuring TEER and only monolayers with TEER reading>800 Ω/cm^2 were used for the invasion assay. AGA19+ or SW620 cell suspension (5×10^5 cells/ml in DMEM) was introduced with 5 μl/ml fluorescent cell labelling solution DiL for 30 min at 37° C. The fluorescence labelled cells were washed twice with PBS and resuspended into 1×10^5 cells/ml in DMEM. […] The cells at the upper side of the trans-well inserts were gently removed with cotton swabs. The cells migrated to the bottom side of the transwells were fixed with 2% paraformaldehyde for 10 min. The trans-well membrane was removed and placed on glass slides. After addition of fluorescence mounting medium containing DAPI, the fluorescence labelled cells on the membrane were quantified under a fluorescence microscope.

[13] = target: T3, Galectin-8 (Homo sapiens, UniProt O00214); test: Galectin-8 binding to asialofetuin ELISA; settings: Gal-8 5 μg/ml, ASF 20 μg/ml
T3 construct: purchased R&D Systems (Abingdon, UK)
T3 sequence (O00214 1-317): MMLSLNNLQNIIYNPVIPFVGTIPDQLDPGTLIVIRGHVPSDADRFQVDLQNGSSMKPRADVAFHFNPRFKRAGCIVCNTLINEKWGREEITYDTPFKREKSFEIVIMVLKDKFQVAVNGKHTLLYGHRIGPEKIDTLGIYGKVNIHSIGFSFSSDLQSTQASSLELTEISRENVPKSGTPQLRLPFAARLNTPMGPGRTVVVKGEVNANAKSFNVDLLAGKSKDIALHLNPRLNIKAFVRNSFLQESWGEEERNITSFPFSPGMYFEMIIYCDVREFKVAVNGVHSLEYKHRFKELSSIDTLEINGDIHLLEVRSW
Experimental: as §1

[14] = test system: human breast cancer cells; settings: by suppressing activation of NFKB induced by TNFα; cited from earlier work
[15] = test system: human colon cancer cells; settings: cited from earlier work

T1 sequence (P17931 whole entry): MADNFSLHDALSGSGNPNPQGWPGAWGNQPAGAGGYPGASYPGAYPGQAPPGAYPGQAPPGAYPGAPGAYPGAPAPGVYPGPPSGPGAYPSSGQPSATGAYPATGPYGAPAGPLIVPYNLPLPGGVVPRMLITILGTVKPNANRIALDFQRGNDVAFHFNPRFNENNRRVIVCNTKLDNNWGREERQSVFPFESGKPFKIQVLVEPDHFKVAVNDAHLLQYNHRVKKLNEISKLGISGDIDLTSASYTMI
T2 sequence (P17931 whole entry): as above

Compound	Inhibition of Galectin-3 binding to its ligand asialofetuin (ASF) [1]	pIC50 [1]	Effect on adhesion of galectin-3 knockout (Gal3KO) PANC1 cells [2]	Effect on adhesion of non-transfected (con) PANC1 cells [2]	Inhibition of PANC1 cell adhesion to matrix [2]	Inhibition of tubule numbers [3]	Inhibition of vascular tubule length [3]	Inhibition of SW620 cell adhesion to HUVECs [4]	Inhibition of galectin-3-induced TNFα secretion [5]	pKd [6]	Inhibition of galectin-3-induced IL-1β secretion [7]	Cytotoxicity to HUVEC cells (LDH release) [8]	Effect on adhesion of galectin-3 knockout (Gal3KO) MDA-MB-231 cells [9]	Effect on adhesion of non-transfected (con) MDA-MB-231 cells [9]	Inhibition of MDA-MB-231 cell adhesion to matrix [9]	Cytotoxicity to SW620 cells (LDH release) [10]	pIC50 [11]	Inhibition of H1975 cell adhesion to matrix [11]	Inhibition of galectin-3-mediated invasion of SW620 cells through HUVECs [12]	other results
Cc1c(O)cccc1C(=O)N[C@@H](CSc1ccccc1)[C@H](O)CN1C[C@H]2CCCC[C@H]2C[C@H]1C(=O)NC(C)(C)C [Formula Y, Nelfinavir mesylate]	inhibit galectin-3 binding to ASF in a dose-dependent manner	≥ 5.00	lost their inhibitory effect	significant reduction	dose-dependent inhibition	dose-dependent inhibition	dose-dependent inhibition	dose-dependent inhibition	dose-dependent inhibition	~4.05	dose-dependent inhibition	little or low toxicity	lost their inhibitory effect	significant reduction	dose-dependent inhibition	little or low toxicity	~5.30	dose-dependent inhibition	dose-dependent inhibition	pIC50 ([9]; Homo sapiens, MDA-MB-231): ~5.00
CN(C)CCOc1ccc(/C(=C(/CCCl)c2ccccc2)c2ccccc2)cc1 [Formula Z, Toremifene citrate]	inhibit galectin-3 binding to ASF in a dose-dependent manner	≥ 5.00	lost their inhibitory effect	significant reduction	dose-dependent inhibition	dose-dependent inhibition	dose-dependent inhibition	dose-dependent inhibition	dose-dependent inhibition	~4.46	dose-dependent inhibition	low cytotoxicity	lost their inhibitory effect	significant reduction	dose-dependent inhibition	low cytotoxicity	5.00 to 5.30	dose-dependent inhibition	dose-dependent inhibition	–
OC[C@H]1O[C@@H](O[C@H]2[C@H](O)[C@@H](O)C(O)O[C@@H]2CO)[C@H](O)[C@@H](O)[C@H]1O (stereo partly drawn) [lactose]	–	–	–	–	–	–	–	–	–	–	–	–	–	–	–	–	–	–	–	Effect on Galectin-8 binding to asialofetuin [13]: dose-dependently inhibits
CO/N=C1\CN(c2nc3c(cc2F)c(=O)c(C(=O)O)cn3C2CC2)CC1CN (stereo not drawn) [Formula W, Gemifloxacin]	–	–	–	–	–	–	–	–	–	–	–	–	–	–	–	–	–	–	–	Effect on migration, invasion and metastasis in human breast cancer cells [14]: inhibit migration, invasion and metastasis; Effect on migration and invasion of human colon cancer cells [15]: inhibit migration and invasion
